Laboratory results published in patent publication US8187825B2, “Thiol detection method” (Riken, priority 2008, dated 2012).

Columns and labels:
[1] = Fluorescence measurement of probe with cysteine; conditions: 100 nM probe
Experimental: The reaction was carried out using the 100 nM probe (compound 2) and 10 mM cysteine at 37° C. for 30 minutes in 50 mM Tris-HCl (pH 7.4). A fluorescence spectrum was obtained with a fluorescence spectrometer (FP-6500; JASCO). Fluorescence was obtained by excitation at 490 nm at a scanning range of 450 to 650 nm.
Fluorescence was monitored by excitation at 490 nm.

[2] = Reactivity of probe with thiol (fluorescence intensity at 522 nm); conditions: 1 μM probe, 37° C., 30 minutes, 50 mM Tris-HCl pH 7.4
Experimental: The reactivity of the probe (compound 2) with several types of thiols was examined by measuring an increase in the fluorescence intensity at 522 nm. The reaction was carried out using the 1 μM probe and 1 mM thiol at 37° C. for 30 minutes in 50 mM Tris-HCl (pH 7.4).
In addition, as a comparative example, a compound represented by the following formula (3) was used as a probe, and its reactivity was examined in the same above manner:
After addition of thiol, the solution was incubated at 37° C. for 30 minutes. The fluorescence at 522 nm was monitored by excitation at 490 nm. “3′-thio dT” indicates 3′-phosphorothioate-2′-deoxythymidine; “DTT” indicates dithiothreitol; “GSH” indicates glutathione; “L-Gly” indicates L-glycine; and “Vc” indicates ascorbic acid.

[3] = Stability of probe on heating in Tris buffer; type: physicochemical; conditions: 55° C. for 24 hours in 50 mM Tris buffer (pH 7.4)
HeLa cells = experiment: Fluorescence microscope observation of living HeLa cells; type: cell-based
Experimental: HeLa cells were allowed to grow at 37° C. in a 5% CO2 atmosphere in MEM in order to use them for a test with living cells. The cells were incubated at 37° C. for 15 minutes in the presence of the 25 μM probe (compound 2) (1:100 DMSO/PBS(−), v/v). As a control experiment, the cells were treated with 1 mM N-methylmaleimide in PBS(−) at 37° C. for 60 minutes, and the resultant cells were then washed with a PBS(−) buffer three times. Thereafter, the cells were incubated at 37° C. for 15 minutes in the presence of the 25 μM probe (1:100 DMSO/PBS(−), v/v).
The fluorescence image was obtained using a digital camera (Cool Snap HQ; Roper Scientific) and imaging software (MetaMorph; Molecular Devices), under a fluorescence microscope equipped with a mercury lamp (Axiovert 200M; Carl Zeiss). The conditions of the microscope were determined as follows. Excitation: 470/40 bandpass filter; light emission: 525/50 bandpass filter; and irradiation time: 300 msec.
(a, b): a control image of the cells, which were pre-treated with N-methylmaleimide (1 mM) at 37° C. for 60 minutes and were then incubated together with the probe (25 μM) at 37° C. for 15 minutes; (c, d): an image of the cells, which were incubated together with the probe (25 μM) at 37° C. for 15 minutes; (a, c) a bright-field image; (b, d) a fluorescent image. The conditions of the microscope were determined as follows. Excitation: 470/40 bandpass filter; light emission: 525/50 bandpass filter; and irradiation time: 300 msec.

[4] = Fluorescence measurement in solution with GSH; conditions: 100 nM probe
Experimental: The 100 nM probe (compound 4) was allowed to react with 10 mM GSH in 50 mM Tris-HCl (pH 7.4) at 37° C. for 30 minutes. Thereafter, the fluorescence intensity was measured using a fluorescence spectrometer (FP-6500; JASCO) (excitation wavelength: 540 nm).

HL60 = experiment: Flow cytometry of HL60 cells; type: cell-based; conditions: 100 μM probe, 37° C., 15 minutes; control pre-treated with 1 mM N-methylmaleimide 30 minutes
Experimental: The 100 μM probe (compound 4) was added to HL60, and the mixture was then reacted at 37° C. for 15 minutes. Thereafter, a measurement was then carried out by flow cytometry. 1 mM N-methylmaleimide (N-MMI) used as a thiol-blocking agent was added to HL60, and the obtained mixture was then reacted at 37° C. for 30 minutes. Thereafter, the 100 μM probe was added to the reaction product, and the obtained mixture was reacted at 37° C. for 15 minutes. Thereafter, the measurement was carried out by flow cytometry.

[5] = cited from earlier work

O=C1OC2(c3ccc(NS(=O)(=O)c4ccc([N+](=O)[O-])cc4[N+](=O)[O-])cc3Oc3cc(NS(=O)(=O)c4ccc([N+](=O)[O-])cc4[N+](=O)[O-])ccc32)c2ccccc21 [compound 2]
increase in fluorescence intensity around 520 nm after addition of cysteine (factor) ([1]; 10 mM cysteine, 50 mM Tris-HCl pH 7.4, 37° C., 30 minutes, excitation 490 nm): approximately 3500 | fluorescence of the probe without cysteine ([1]; no cysteine, 50 mM Tris-HCl pH 7.4, excitation 490 nm): no significant fluorescence was observed | increase in fluorescence intensity at 522 nm ([2]; 1 mM 2-mercaptoethanol (ME)): 11 times | activity on other biological substances (selectivity) ([2]; glycine, ascorbic acid, or hydrogen peroxide): did not exhibit activity | stability: fluorescence signal after heating [3]: no increase in the fluorescence signal was detected | fluorescence signal of cells pre-treated with thiol-blocking agent (HeLa cells; HeLa cells pre-treated with 1 mM N-methylmaleimide 60 minutes, then 25 μM probe 15 minutes): no fluorescence signal was observed | permeation into cells (HeLa cells; HeLa cells, 25 μM probe): permeates into the cell membrane | fluorescence signal of cells (HeLa cells; HeLa cells, 25 μM probe, 15 minutes, 37° C.): significant fluorescence signal

O=C1OC2(c3ccc(NS(=O)(=O)c4ccc([N+](=O)[O-])cc4)cc3Oc3cc(NS(=O)(=O)c4ccc([N+](=O)[O-])cc4)ccc32)c2ccccc21 [formula (3), reference compound]
increase in fluorescence intensity at 522 nm ([2]; 1 mM phosphorothioate (3′-thio dT)): approximately 950 times | reaction with other thiol groups ([2]; 1 mM thiols other than phosphorothioate): did not react with other thiol groups

Nc1ccc2nc3c4ccccc4/c(=N\S(=O)(=O)c4ccc([N+](=O)[O-])cc4[N+](=O)[O-])cc-3oc2c1 [compound 4]
fluorescence intensity at 620 nm after reaction with GSH ([4]; 10 mM GSH, 37° C., 30 minutes, 50 mM Tris-HCl pH 7.4, excitation 540 nm): an increase in the fluorescence intensity was observed | fluorescence of the probe as a single body (without GSH) ([4]; excitation 540 nm, 50 mM Tris-HCl pH 7.4): generated no fluorescence | fluorescence intensity of HL60 cells (−N-MMI) versus HL60 cells (+N-MMI) (HL60): higher

OCCS [2-mercaptoethanol]
pKa value [5]: 9.5
